Laboratory results: the Kinase Knowledgebase extract (Sharma et al. 2016)

The compounds below were run against EGFR (UniProt P00533).
EGFR, sequence (P00533 whole entry, looked up): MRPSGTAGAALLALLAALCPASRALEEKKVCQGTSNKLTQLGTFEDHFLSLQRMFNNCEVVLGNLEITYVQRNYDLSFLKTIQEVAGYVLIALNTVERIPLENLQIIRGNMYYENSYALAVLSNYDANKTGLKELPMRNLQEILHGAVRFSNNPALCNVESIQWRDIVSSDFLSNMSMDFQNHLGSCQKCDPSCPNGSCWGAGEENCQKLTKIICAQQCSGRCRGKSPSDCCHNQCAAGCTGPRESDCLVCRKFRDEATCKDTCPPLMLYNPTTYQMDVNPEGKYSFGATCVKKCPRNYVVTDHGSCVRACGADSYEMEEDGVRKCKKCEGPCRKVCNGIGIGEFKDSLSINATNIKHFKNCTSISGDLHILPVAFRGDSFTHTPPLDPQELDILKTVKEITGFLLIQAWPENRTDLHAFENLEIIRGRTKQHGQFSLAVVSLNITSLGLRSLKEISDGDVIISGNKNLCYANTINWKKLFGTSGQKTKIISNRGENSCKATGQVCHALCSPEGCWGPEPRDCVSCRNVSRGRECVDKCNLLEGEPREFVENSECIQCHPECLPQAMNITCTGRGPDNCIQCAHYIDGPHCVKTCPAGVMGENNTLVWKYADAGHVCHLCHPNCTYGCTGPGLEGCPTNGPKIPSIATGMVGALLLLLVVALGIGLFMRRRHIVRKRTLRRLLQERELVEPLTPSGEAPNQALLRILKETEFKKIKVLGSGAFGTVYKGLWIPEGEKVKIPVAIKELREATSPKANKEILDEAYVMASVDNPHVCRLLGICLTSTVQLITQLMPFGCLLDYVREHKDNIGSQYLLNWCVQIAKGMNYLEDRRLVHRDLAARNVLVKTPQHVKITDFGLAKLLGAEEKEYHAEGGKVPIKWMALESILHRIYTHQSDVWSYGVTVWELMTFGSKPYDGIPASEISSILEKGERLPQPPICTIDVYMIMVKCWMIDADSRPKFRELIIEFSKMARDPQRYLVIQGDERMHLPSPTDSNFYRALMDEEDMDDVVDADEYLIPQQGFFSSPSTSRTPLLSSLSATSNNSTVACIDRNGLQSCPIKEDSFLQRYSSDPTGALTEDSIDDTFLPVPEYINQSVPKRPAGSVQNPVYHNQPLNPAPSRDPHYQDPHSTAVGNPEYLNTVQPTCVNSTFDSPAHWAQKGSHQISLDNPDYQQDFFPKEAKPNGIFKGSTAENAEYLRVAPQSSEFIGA

Structure (SMILES)	IC50 [nM]
O=S(=O)(CCNCc1ccc(-c2ccc3ncnc(Nc4ccc(OCc5cccc(F)c5)c(Cl)c4)c3c2)o1)c1ccccn1	< 100
O=S(=O)(CCNCc1ccc(-c2ccc3ncnc(Nc4ccc(OCc5cccc(F)c5)c(Cl)c4)c3c2)o1)c1ccccc1	< 100
CCCN(CCS(C)(=O)=O)Cc1ccc(-c2ccc3ncnc(Nc4ccc(OCc5cccc(F)c5)c(Cl)c4)c3c2)o1	< 100
CS(=O)(=O)CCNCCCc1ccc(-c2ccc3ncnc(Nc4ccc(OCc5ccccc5)c(Cl)c4)c3c2)o1	< 100
O=S(=O)(CCOCc1ccc(-c2ccc3ncnc(Nc4ccc(OCc5cccc(F)c5)c(Cl)c4)c3c2)o1)c1ccccc1	< 100
Cn1ccnc1S(=O)(=O)CCNCc1ccc(-c2ccc3ncnc(Nc4ccc(OCc5cccc(F)c5)c(Cl)c4)c3c2)o1	< 100

Second part, the compound after the results:

IC50 [nM]	Structure (SMILES)
< 100	CCCS(=O)(=O)CCNCc1ccc(-c2cc3c(Nc4ccc(OCc5cccc(F)c5)cc4)ncnc3cn2)o1
< 100	CCCS(=O)(=O)CCNCc1ccc(-c2ccc3ncnc(Nc4ccc(OCc5cccc(F)c5)c(Cl)c4)c3c2)o1
< 100	CCN(CCS(C)(=O)=O)Cc1ccc(-c2ccc3ncnc(Nc4ccc(OCc5cccc(F)c5)c(Cl)c4)c3c2)o1
< 100	CS(=O)(=O)CCOCc1ccc(-c2ccc3ncnc(Nc4ccc(OCc5cccc(F)c5)c(Cl)c4)c3c2)o1
< 100	C=CS(=O)(=O)CCOCc1ccc(-c2ccc3ncnc(Nc4ccc(OCc5cccc(F)c5)c(Cl)c4)c3c2)o1
< 100	CS(=O)(=O)CCN(CC#N)Cc1ccc(-c2ccc3ncnc(Nc4ccc(OCc5cccc(F)c5)c(Cl)c4)c3c2)o1
